Reference: US9955691B2, “Macrocyclic picolinamides as fungicides” (DOW AGROSCIENCES LLC, priority 2014, dated 2018)

The compounds below were run on Puccinia triticina (assay: Fungicidal activity: Wheat Brown Rust (PUCCRT)). Conditions: 24 h, High Volume (100 ppm), 1 Day Protectant, read-out: PUCCRT 1 DP disease control.
Format: in vivo
Description: (§1) Technical grades of materials were dissolved in acetone, which were then mixed with nine volumes of water containing 110 ppm Triton X-100. The fungicide solutions were applied onto wheat seedlings using an automated booth sprayer to run-off. All sprayed plants were allowed to air dry prior to further handling. All fungicides were evaluated using the aforementioned method for their activity vs. all target diseases, unless stated otherwise. Wheat leaf blotch and brown rust activity were also evaluated using track spray applications, in which case the fungicides were formulated as EC formulations, containing 0.1% Trycol 5941 in the spray solutions. Wheat plants (variety Yuma) were grown from seed in a greenhouse in 50% mineral soil/50% soil-less Metro mix until the first leaf was fully emerged, with 7-10 seedlings per pot. These plants were inoculated with an aqueous spore suspension of Septoria tritici either prior to or after fungicide treatments. After inoculation the plants were kept in 100% relative humidity (one day in a dark dew chamber followed by two to three days in a lighted dew chamber at 20° C.) to permit spores to germinate and infect the leaf. The plants were then transferred to a greenhouse set at 20° C. for disease to develop. When disease symptoms were fully expressed on the 1st leaves of untreated plants, infection levels were assessed on a scale of 0 to 100 percent disease severity. Percent disease control was calculated using the ratio of disease severity on treated plants relative to untreated plants. Evaluation of Fungicidal Activity: Wheat Brown Rust (Puccinia triticina; Synonym: Puccinia recondite f. Sp. Tritici; Bayer Code PUCCRT) Wheat plants (variety Yuma) were grown from seed in a greenhouse in 50% mineral soil/50% soil-less Metro mix until the first leaf was fully emerged, with 7-10 seedlings per pot. These plants were inoculated with an aqueous spore suspension of Puccinia triticina either prior to or after fungicide treatments. After inoculation the plants were kept in a dark dew room at 22° C. with 100% relative humidity overnight to permit spores to germinate and infect the leaf. The plants were then transferred to a greenhouse set at 24° C. for disease to develop. Fungicide formulation, application and disease assessment followed the procedures as described in the Example A.
In the case of `COc1ccnc(C(=O)N[C@H]2COC[C@H](Cc3ccccc3)[C@@H](Cc3ccc(F)cc3)[C@H](C)OC2=O)c1O` [compound 143], the pest or weed control at 100 µg/mL is reported as over 70%. Work on `COc1ccnc(C(=O)N[C@H]2COC[C@H](CCC(C)C)[C@@H](CCC(C)C)[C@H](C)OC2=O)c1OCOC(C)=O` [compound 8] yielded a pest or weed control at 100 µg/mL of over 70%. With `COc1ccnc(C(=O)N[C@H]2COC[C@H](Cc3ccc(Cl)cc3)[C@@H](CC(C)C)[C@H](C)OC2=O)c1O` [compound 145] the pest or weed control at 100 µg/mL was over 70%. `COc1ccnc(C(=O)N[C@H]2COC[C@H](Cc3ccc(C(F)(F)F)cc3)[C@@H](Cc3ccc(F)cc3)[C@H](C)OC2=O)c1O` [compound 147] gave a pest or weed control at 100 µg/mL of over 70%. For `COc1ccnc(C(=O)N[C@H]2COC[C@H](Cc3ccccc3)[C@@H](CC(C)C)[C@H](C)OC2=O)c1O` [compound 125], the pest or weed control at 100 µg/mL was over 70%. With `COc1ccnc(C(=O)N[C@H]2COC[C@H](CC3CCCC3)[C@@H](CC3CCCC3)[C@H](C)OC2=O)c1O` [compound 127] the pest or weed control at 100 µg/mL was over 70%. `COc1ccnc(C(=O)N[C@H]2COC[C@H](CCC(C)C)[C@@H](Cc3ccccc3)[C@H](C)OC2=O)c1O` [compound 133] gave a pest or weed control at 100 µg/mL of over 70%. For `COc1ccnc(C(=O)N[C@H]2COC[C@H](CCCc3ccccc3)[C@@H](CC(C)C)[C@H](C)OC2=O)c1O` [compound 144], the pest or weed control at 100 µg/mL was over 70%. With `COc1ccnc(C(=O)N[C@H]2COC[C@@H]3CCCC[C@H]3[C@@H](C)OC2=O)c1OCOC(C)=O` [compound 5] the pest or weed control at 100 µg/mL was under 70%. Work on `CCCC[C@@H]1[C@@H](Cc2ccccc2)COC[C@H](NC(=O)c2nccc(OC)c2O)C(=O)O[C@H]1C` [compound 110] yielded a pest or weed control at 100 µg/mL of under 70%.

Same assay, conditions: 24 h, Low Volume (121.5 g/H), 1 Day Protectant, read-out: PUCCRT 1 DP disease control
With `COc1ccnc(C(=O)N[C@H]2COC[C@H](Cc3ccccc3)[C@@H](CCc3ccccc3)[C@H](C)OC2=O)c1OCOC(=O)C(C)C` [compound 31] the pest or weed control at 121.5 g/ha was over 70%. Work on `COc1ccnc(C(=O)N[C@H]2COC[C@H](CCCc3ccccc3)[C@@H](Cc3ccc(OC(F)(F)F)cc3)[C@H](C)OC2=O)c1OC(C)=O` [compound 81] yielded a pest or weed control at 121.5 g/ha of under 70%.

Same assay, conditions: 72 h, High Volume (100 ppm), 3 Day Curative, read-out: PUCCRT 3 DC disease control
`COc1ccnc(C(=O)N[C@H]2COC[C@H](Cc3ccccc3)[C@@H](Cc3ccc(F)cc3)[C@H](C)OC2=O)c1O` [compound 143] showed a pest or weed control at 100 µg/mL of under 70%. `COc1ccnc(C(=O)N[C@H]2COC[C@H](CCC(C)C)[C@@H](CCC(C)C)[C@H](C)OC2=O)c1OCOC(C)=O` [compound 8] showed a pest or weed control at 100 µg/mL of over 70%. In the case of `COc1ccnc(C(=O)N[C@H]2COC[C@H](Cc3ccc(Cl)cc3)[C@@H](CC(C)C)[C@H](C)OC2=O)c1O` [compound 145], the pest or weed control at 100 µg/mL is reported as over 70%. With `COc1ccnc(C(=O)N[C@H]2COC[C@H](Cc3ccc(C(F)(F)F)cc3)[C@@H](Cc3ccc(F)cc3)[C@H](C)OC2=O)c1O` [compound 147] the pest or weed control at 100 µg/mL was under 70%. `COc1ccnc(C(=O)N[C@H]2COC[C@H](Cc3ccccc3)[C@@H](CC(C)C)[C@H](C)OC2=O)c1O` [compound 125] showed a pest or weed control at 100 µg/mL of under 70%. With `COc1ccnc(C(=O)N[C@H]2COC[C@H](CC3CCCC3)[C@@H](CC3CCCC3)[C@H](C)OC2=O)c1O` [compound 127] the pest or weed control at 100 µg/mL was over 70%. With `COc1ccnc(C(=O)N[C@H]2COC[C@H](CCC(C)C)[C@@H](Cc3ccccc3)[C@H](C)OC2=O)c1O` [compound 133] the pest or weed control at 100 µg/mL was over 70%. `COc1ccnc(C(=O)N[C@H]2COC[C@H](CCCc3ccccc3)[C@@H](CC(C)C)[C@H](C)OC2=O)c1O` [compound 144] gave a pest or weed control at 100 µg/mL of over 70%. Compound `CCCC[C@@H]1[C@@H](Cc2ccccc2)COC[C@H](NC(=O)c2nccc(OC)c2O)C(=O)O[C@H]1C` [compound 110] has a pest or weed control at 100 µg/mL of under 70%.

Same assay, conditions: 72 h, Low Volume (121.5 g/H), 3 Day Curative, read-out: PUCCRT 3 DC disease control
`COc1ccnc(C(=O)N[C@H]2COC[C@H](Cc3ccccc3)[C@@H](CCc3ccccc3)[C@H](C)OC2=O)c1OCOC(=O)C(C)C` [compound 31] showed a pest or weed control at 121.5 g/ha of over 70%. `COc1ccnc(C(=O)N[C@H]2COC[C@H](CCCc3ccccc3)[C@@H](Cc3ccc(OC(F)(F)F)cc3)[C@H](C)OC2=O)c1OC(C)=O` [compound 81] gave a pest or weed control at 121.5 g/ha of under 70%.

The compounds below were run on Mycosphaerella graminicola; Anamorph: Septoria tritici (assay: Fungicidal activity: Leaf Blotch of Wheat (SEPTTR)). Conditions: Zymoseptoria tritici, 24 h; High Volume (100 ppm), 1 Day Protectant, wheat leaf blotch; read-out: SEPTTR 1 DP disease control.
Format: in vivo
Description: as §1, with “Evaluation of Fungicidal Activity: Leaf Blotch of Wheat (Mycosphaerella graminicola; Anamorph: Septoria tritici; Bayer Code […]) Technical” for “Technical”, “plants.” for “plants. Evaluation of Fungicidal Activity: Wheat Brown Rust (Puccinia triticina; Synonym: Puccinia recondite f. Sp. Tritici; Bayer Code PUCCRT) Wheat plants (variety Yuma) were grown from seed in a greenhouse in 50% mineral soil/50% soil-less Metro mix until the first leaf was fully emerged, with 7-10 seedlings per pot. These plants were inoculated with an aqueous spore suspension of Puccinia triticina either prior to or after fungicide treatments. After inoculation the plants were kept in a dark dew room at 22° C. with 100% relative humidity overnight to permit spores to germinate and infect the leaf. The plants were then transferred to a greenhouse set at 24° C. for disease to develop. Fungicide formulation, application and disease assessment followed the procedures as described in the Example A.”
In the case of `COc1ccnc(C(=O)N[C@H]2COC[C@H](Cc3ccccc3)[C@@H](Cc3ccc(F)cc3)[C@H](C)OC2=O)c1O` [compound 143], the pest or weed control at 100 µg/mL is reported as over 70%. In the case of `COc1ccnc(C(=O)N[C@H]2COC[C@H](CCC(C)C)[C@@H](CCC(C)C)[C@H](C)OC2=O)c1OCOC(C)=O` [compound 8], the pest or weed control at 100 µg/mL is reported as over 70%. In the case of `COc1ccnc(C(=O)N[C@H]2COC[C@H](Cc3ccc(Cl)cc3)[C@@H](CC(C)C)[C@H](C)OC2=O)c1O` [compound 145], the pest or weed control at 100 µg/mL is reported as over 70%. `COc1ccnc(C(=O)N[C@H]2COC[C@H](Cc3ccc(C(F)(F)F)cc3)[C@@H](Cc3ccc(F)cc3)[C@H](C)OC2=O)c1O` [compound 147] showed a pest or weed control at 100 µg/mL of over 70%. `COc1ccnc(C(=O)N[C@H]2COC[C@H](Cc3ccccc3)[C@@H](CC(C)C)[C@H](C)OC2=O)c1O` [compound 125] showed a pest or weed control at 100 µg/mL of under 70%. `COc1ccnc(C(=O)N[C@H]2COC[C@H](CC3CCCC3)[C@@H](CC3CCCC3)[C@H](C)OC2=O)c1O` [compound 127] showed a pest or weed control at 100 µg/mL of over 70%. Work on `COc1ccnc(C(=O)N[C@H]2COC[C@H](CCC(C)C)[C@@H](Cc3ccccc3)[C@H](C)OC2=O)c1O` [compound 133] yielded a pest or weed control at 100 µg/mL of over 70%. With `COc1ccnc(C(=O)N[C@H]2COC[C@H](CCCc3ccccc3)[C@@H](CC(C)C)[C@H](C)OC2=O)c1O` [compound 144] the pest or weed control at 100 µg/mL was over 70%. With `COc1ccnc(C(=O)N[C@H]2COC[C@@H]3CCCC[C@H]3[C@@H](C)OC2=O)c1OCOC(C)=O` [compound 5] the pest or weed control at 100 µg/mL was under 70%. For `CCCC[C@@H]1[C@@H](Cc2ccccc2)COC[C@H](NC(=O)c2nccc(OC)c2O)C(=O)O[C@H]1C` [compound 110], the pest or weed control at 100 µg/mL was over 70%.

Same assay, conditions: Zymoseptoria tritici, 24 h; Low Volume (121.5 g/H), 1 Day Protectant, wheat leaf blotch; read-out: SEPTTR 1 DP disease control
With `COc1ccnc(C(=O)N[C@H]2COC[C@H](Cc3ccccc3)[C@@H](CCc3ccccc3)[C@H](C)OC2=O)c1OCOC(=O)C(C)C` [compound 31] the pest or weed control at 121.5 g/ha was over 70%. `COc1ccnc(C(=O)N[C@H]2COC[C@H](CCCc3ccccc3)[C@@H](Cc3ccc(OC(F)(F)F)cc3)[C@H](C)OC2=O)c1OC(C)=O` [compound 81] gave a pest or weed control at 121.5 g/ha of under 70%.

Same assay, conditions: Zymoseptoria tritici, 72 h; High Volume (100 ppm), 3 Day Curative, wheat leaf blotch; read-out: SEPTTR 3 DC disease control
`COc1ccnc(C(=O)N[C@H]2COC[C@H](Cc3ccccc3)[C@@H](Cc3ccc(F)cc3)[C@H](C)OC2=O)c1O` [compound 143] showed a pest or weed control at 100 µg/mL of under 70%. Compound `COc1ccnc(C(=O)N[C@H]2COC[C@H](CCC(C)C)[C@@H](CCC(C)C)[C@H](C)OC2=O)c1OCOC(C)=O` [compound 8] has a pest or weed control at 100 µg/mL of over 70%. Work on `COc1ccnc(C(=O)N[C@H]2COC[C@H](Cc3ccc(Cl)cc3)[C@@H](CC(C)C)[C@H](C)OC2=O)c1O` [compound 145] yielded a pest or weed control at 100 µg/mL of over 70%. Compound `COc1ccnc(C(=O)N[C@H]2COC[C@H](Cc3ccc(C(F)(F)F)cc3)[C@@H](Cc3ccc(F)cc3)[C@H](C)OC2=O)c1O` [compound 147] has a pest or weed control at 100 µg/mL of under 70%. `COc1ccnc(C(=O)N[C@H]2COC[C@H](Cc3ccccc3)[C@@H](CC(C)C)[C@H](C)OC2=O)c1O` [compound 125] showed a pest or weed control at 100 µg/mL of under 70%. Work on `COc1ccnc(C(=O)N[C@H]2COC[C@H](CC3CCCC3)[C@@H](CC3CCCC3)[C@H](C)OC2=O)c1O` [compound 127] yielded a pest or weed control at 100 µg/mL of over 70%. `COc1ccnc(C(=O)N[C@H]2COC[C@H](CCC(C)C)[C@@H](Cc3ccccc3)[C@H](C)OC2=O)c1O` [compound 133] was tested, and the pest or weed control at 100 µg/mL was over 70%. Compound `COc1ccnc(C(=O)N[C@H]2COC[C@H](CCCc3ccccc3)[C@@H](CC(C)C)[C@H](C)OC2=O)c1O` [compound 144] has a pest or weed control at 100 µg/mL of over 70%. `COc1ccnc(C(=O)N[C@H]2COC[C@@H]3CCCC[C@H]3[C@@H](C)OC2=O)c1OCOC(C)=O` [compound 5] gave a pest or weed control at 100 µg/mL of under 70%. `CCCC[C@@H]1[C@@H](Cc2ccccc2)COC[C@H](NC(=O)c2nccc(OC)c2O)C(=O)O[C@H]1C` [compound 110] was tested, and the pest or weed control at 100 µg/mL was over 70%.

Same assay, conditions: Zymoseptoria tritici, 72 h; Low Volume (121.5 g/H), 3 Day Curative, wheat leaf blotch; read-out: SEPTTR 3 DC disease control
`COc1ccnc(C(=O)N[C@H]2COC[C@H](Cc3ccccc3)[C@@H](CCc3ccccc3)[C@H](C)OC2=O)c1OCOC(=O)C(C)C` [compound 31] showed a pest or weed control at 121.5 g/ha of over 70%. In the case of `COc1ccnc(C(=O)N[C@H]2COC[C@H](CCCc3ccccc3)[C@@H](Cc3ccc(OC(F)(F)F)cc3)[C@H](C)OC2=O)c1OC(C)=O` [compound 81], the pest or weed control at 121.5 g/ha is reported as under 70%.
